The source of these data is ChEMBL document CHEMBL1201862, “PubChem BioAssay data set” (2004).

Experiment in all cases: NCI tumour cell line growth inhibition, 48 h
The subject of assay [1] is M14.
In assay [2] the test system is U-251.
In assay [3] the test system is OVCAR-8.
Assay [4] deals with RPMI-8226.
Assay [5] has as its system 786-0.
The test system of assay [6] is SW-620.
Assay [7] deals with SK-MEL-2.
Assay [8] concerns SF-539.
Assay [9] has as its system LOX IMVI.
In assay [10] the test system is IGROV-1.
The test system of assay [11] is NCI-H460.
The subject of assay [12] is A498.
The subject of assay [13] is CAKI-1.
For assay [14], the system named is SK-MEL-5.
Assay [15] relates to SK-MEL-28.
Assay [16] deals with ACHN.
The test system of assay [17] is MDA-MB-435.
The test system of assay [18] is SK-OV-3.
The subject of assay [19] is MCF7.

Structures are written as SMILES.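 96-well plates; 48 h exposure; 5 concentrations. Endpoints by linear interpolation between flanking doses. Not reached: highest tested concentration assigned. GI50: concentration for 50% inhibition of growth.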 Calls of active or inactive are those of the source. No stated cut-off is given here; in the data, active = GI50 up to about 1.1 µM and inactive = higher.

As for `COC(=O)CSc1nnc(-c2ccc(O)c([N+](=O)[O-])c2)[nH]1`, the GI50 in assay [1], in assay [2], in assay [3], in [4], in assay [5] and in assay [6] was > 100 µM (inactive) in each case. Also, the GI50 in assay [7], in assay [8], in assay [9], in assay [10], in assay [11] and in [12] was > 100 µM (inactive) in each case. Also, the GI50 in assay [13], in [14], in assay [15] and in assay [16] was > 100 µM (inactive) throughout.
On to `COC(=O)c1cc(C#N)[nH]c1-c1cccs1`, for which the GI50 in [1] is > 100 µM (inactive); in assay [2], > 100 µM (inactive); in assay [3], > 100 µM (inactive); in assay [4] it was 36.6 µM (inactive); in [5], > 100 µM (inactive); in assay [6], > 100 µM (inactive). The GI50 is > 100 µM (inactive) in assay [8]; > 100 µM (inactive) in assay [11]; > 100 µM (inactive) in assay [17]; 37.8 µM (inactive) in [12]; 56.8 µM (inactive) in assay [13]; > 100 µM (inactive) in [15]. Also, the figures for the GI50 in assay [16] and in [18] were 89.9 µM (inactive) and > 100 µM (inactive), respectively.
Turning to `CC1C(c2ccccc2)NC(c2ccccc2)CC1(N)C#N` (stereo unspecified), the GI50 in assay [1] is 38.8 µM (inactive); in [2], > 100 µM (inactive); in assay [3], > 100 µM (inactive); in [5] it was > 100 µM (inactive); in [6], > 100 µM (inactive); in [8] it was > 100 µM (inactive). Further, the GI50 in assay [9], in assay [19], in assay [10], in [11], in [17] and in assay [13] was > 100 µM (inactive) throughout. The GI50 in assay [14], in [15], in assay [16] and in assay [18] was > 100 µM (inactive) each time.
As to `Brc1ccc2c(-c3csc(-c4c[nH]c5ccccc45)n3)c[nH]c2c1`, the GI50 is 14.3 µM (inactive) in assay [1]; 17.9 µM (inactive) in assay [2]; 18.2 µM (inactive) in assay [3]; 19.4 µM (inactive) in [4]; 17.9 µM (inactive) in assay [5]; 16.5 µM (inactive) in assay [6]. For the same compound, the GI50 in assay [8] was 16 µM (inactive); in assay [9] it was 15.5 µM (inactive); in assay [10] it was 13 µM (inactive); in assay [11] it was 16.1 µM (inactive); in assay [17], 14.9 µM (inactive); in [12] it was 17 µM (inactive). Further, the GI50 in assay [13] is 15.8 µM (inactive); in [14] it was 15.3 µM (inactive); in [15] it was 14.9 µM (inactive); in assay [16], 15.7 µM (inactive); in [18], 18.9 µM (inactive).
Take `COc1cc2c(cc1OC)C(C(=O)c1cccc(OC)c1OC)C(=O)N(C)CC2` (stereo unspecified): the GI50 in assay [1], in assay [2], in [3], in [4], in assay [5] and in assay [6] was > 100 µM (inactive) each time. Moreover, the GI50 in [7], in assay [9], in [10], in assay [11], in assay [12] and in assay [13] was > 100 µM (inactive) in each case. Further, the GI50 in assay [14], in [15], in [16] and in [18] was > 100 µM (inactive) each time.
As to `O=C1CN(c2ccccc2)Cc2nc(Cl)ccc2N1`, the GI50 in [1], in assay [2], in assay [3], in assay [4], in assay [5] and in assay [6] was > 100 µM (inactive) each time. Moreover, the GI50 in assay [7], in assay [8], in assay [9], in [19], in assay [10] and in assay [11] was > 100 µM (inactive) each time. Besides, the GI50 in [17], in assay [13], in [14], in assay [15], in assay [16] and in [18] was > 100 µM (inactive) each time.
For the compound `O=C1CC(c2ccc(Cl)cc2)C2(C(=O)NC(=O)NC2=O)C(c2ccc(Cl)cc2)C1` (stereo unspecified), the GI50 is 27.7 µM (inactive) in assay [1]; 27.5 µM (inactive) in assay [2]; 27.5 µM (inactive) in [3]; 10.3 µM (inactive) in assay [4]; 25.1 µM (inactive) in [5]; 26.2 µM (inactive) in assay [6]. Moreover, the GI50 in assay [7] was 15.6 µM (inactive); in assay [8], 28.2 µM (inactive); in assay [9], 31.4 µM (inactive); in assay [19], 22.3 µM (inactive); in [10], 18 µM (inactive); in assay [11] it was 28.6 µM (inactive). In addition, the GI50 in assay [17] was 17.3 µM (inactive); in [13], 35.2 µM (inactive); in assay [14] it was 14.5 µM (inactive); in [15] it was 18.2 µM (inactive); in [16], 49 µM (inactive).
Regarding `COc1ccc(N[S+]([O-])c2cccc(C)c2)cc1` (stereo unspecified), the GI50 is > 100 µM (inactive) in assay [1]; 79.1 µM (inactive) in [2]; 52.1 µM (inactive) in assay [3]; 26.2 µM (inactive) in [4]; > 100 µM (inactive) in assay [5]; 57.5 µM (inactive) in [6]. In addition, the GI50 in assay [8] is 27.8 µM (inactive); in assay [9] it was 17.3 µM (inactive); in assay [19] it was 75.5 µM (inactive); in [10] it was 28.3 µM (inactive); in assay [11] it was 30 µM (inactive); in assay [17], 34.9 µM (inactive). The GI50 in assay [13] is 98.6 µM (inactive); in assay [14] it was 25.6 µM (inactive); in assay [15], 33 µM (inactive); in [16], 7.76 µM (inactive).
As for `CC(C)=CCN=C(N)N`, the GI50 in [2] was > 100 µM (inactive); in [3] it was > 100 µM (inactive); in assay [4] it was 24.9 µM (inactive); in [5], > 100 µM (inactive); in assay [6] it was > 100 µM (inactive); in assay [7] it was > 100 µM (inactive). The GI50 in assay [8], in assay [9], in assay [19], in [10], in assay [11] and in [17] was > 100 µM (inactive) throughout. Further, the GI50 in assay [13], in assay [14], in assay [15], in assay [16] and in [18] was > 100 µM (inactive) throughout.
On to `CC(=O)N1C(OCc2ccccc2)CCN1c1ccccc1` (stereo unspecified), for which the GI50 in assay [1], in [3], in assay [4], in [5], in assay [6] and in assay [7] was > 10 µM (inactive) throughout. Moreover, the GI50 in assay [8], in [9], in assay [10], in assay [11], in assay [17] and in assay [13] was > 10 µM (inactive) throughout. Moreover, the GI50 in assay [14], in assay [15], in assay [16] and in [18] was > 10 µM (inactive) in each case.
`CCC1(CC)C(=O)N(C(=O)c2ccccc2)N(C(=O)c2ccc(Cl)cc2)C1=O`: the GI50 in assay [1] is > 75 µM (inactive); in assay [2], 59.3 µM (inactive); in assay [3], > 75 µM (inactive); in [4], 20 µM (inactive); in [5] it was > 75 µM (inactive); in assay [6], 36.2 µM (inactive). In addition, the GI50 is > 75 µM (inactive) in assay [7]; 3.35 µM (inactive) in assay [9]; > 75 µM (inactive) in assay [19]; > 75 µM (inactive) in assay [10]; 36.6 µM (inactive) in [11]; > 75 µM (inactive) in assay [17]. In addition, the GI50 in assay [13], in assay [14], in assay [15], in assay [16] and in [18] was > 75 µM (inactive) throughout.
In the case of `[O-][S+](CC1(O)CCCCC1)c1ccccc1` (stereo unspecified), the GI50 in assay [1] is > 100 µM (inactive); in assay [2], > 100 µM (inactive); in assay [3] it was > 100 µM (inactive); in [4] it was < 0.01 µM (active); in assay [5], > 100 µM (inactive); in [6], > 100 µM (inactive). For the same compound, the GI50 in [7], in assay [9], in [19], in assay [10], in assay [11] and in assay [13] was > 100 µM (inactive) each time. Besides, the GI50 in assay [14], in [15], in assay [16] and in assay [18] was > 100 µM (inactive) each time.
